From patent US5444056A, “Aminoalkoxyphenyl derivatives, process for their preparation and compositions containing them” (Sanofi, priority 1989, dated 1995) come the findings set out here.

Each structure is given as a SMILES string.

Assay [1] concerns contractile response to potassium-induced depolarization on isolated rat aorta. The assay is described as follows: Calcium inhibitory properties: antagonism of contractile response to potassium-induced depolarization on isolated rat aorta. More on the design: species or system rat (male Wistar). The settings on record: percent of maximal contraction before incubation, 60 min.
Assay [2] has as its system increase in blood pressure induced by epinephrine (anti-α effect). The assay is described as follows: Anti-α effect: reduction of epinephrine-induced increase in blood pressure in anesthetized atropinized dog. The conditions noted are these: intravenous, 0,013 mg/kg. Format: in vivo. More on the design: key: +: for a reduction <50%; ++: for a reduction ≥50%; +++: for an almost complete reduction. How it is done: The aim of this test is to determine the capacity of the compounds of the invention to reduce the increase in blood pressure induced by epinephrine (anti-αeffect) and the acceleration of the heart rate induced by isoprenaline (anti-βeffect) in the dog previously anesthetized with pentobarbital and atropinized. First, are determined for each dog the dose of epinephrine (between 3 and 10 μg/kg) which causes a reproducible increase in arterial blood pressure of about 133.10^2 Pa and the dose of isoprenaline (1 to 2 μg/kg) which causes a reproducible increase in the heart rate of about 70 beats/minute. The doses of epinephrine and isoprenaline thus determined are injected alternatively every ten minutes and after the two consecutive reference responses have been obtained, a quantity of the test compound is administered by the intravenous route. The percentage reduction of the hypertension caused by the test compound in comparison with the reference hypertension previously obtained (about 100 mm Hg) is recorded. In both cases, the results of the reduction in arterial pressure and heart rate are expressed as follows: […]

Assay [3] relates to acceleration of the heart rate induced by isoprenaline (anti-β effect). The assay is described as follows: Anti-β effect: reduction of isoprenaline-induced acceleration of the heart rate in anesthetized atropinized dog. Format: in vivo. More on the design: key to Anti-β effect: +: for a reduction <50%; ++: for a reduction ≥50%; +++: for an almost complete reduction. The settings on record: intravenous, 0,013 mg/kg. How it is done: The aim of this test is to determine the capacity of the compounds of the invention to reduce the increase in blood pressure induced by epinephrine (anti-αeffect) and the acceleration of the heart rate induced by isoprenaline (anti-βeffect) in the dog previously anesthetized with pentobarbital and atropinized.
First, are determined for each dog the dose of epinephrine (between 3 and 10 μg/kg) which causes a reproducible increase in arterial blood pressure of about 133.10^2 Pa and the dose of isoprenaline (1 to 2 μg/kg) which causes a reproducible increase in the heart rate of about 70 beats/minute. The doses of epinephrine and isoprenaline thus determined are injected alternatively every ten minutes and after the two consecutive reference responses have been obtained, a quantity of the test compound is administered by the intravenous route.
The percentage reduction of the acceleration of the heart rate caused by the test compound compared with the reference tachycardia previously measured (about 70 beats) is recorded.
In both cases, the results of the reduction in arterial pressure and heart rate are expressed as follows: […]

As to `COc1cc(CCN(C)CCCOc2ccc(S(=O)(=O)c3c(C(C)C)cn4cccc(C)c34)cc2)cc(OC)c1` [Ex. 76, 1-{4-[3-(N-methyl N-3,5-dimethoxy-β-phenethylamino)propoxy]benzenesulfonyl} 2-isopropyl 8-methyl indolizine], the “% maximal contractional effect” value in assay [1] (10^-8 M, 0.01 µM) was 12,7%; in assay [1] (10^-9 M, 0.001 µM) it was 41,8%; in assay [1] (10^-10 M, 0.0001 µM), 64,1%. Besides, the Anti-α effect result in assay [2] is on record as “+++”. Also, in assay [3], the Anti-β effect entry was “+++”.
